Test results from patent publication US9409905B2, “Antibacterial compounds and methods for use” (PTC THERAPEUTICS, INC., priority 2011, dated 2016).
Values after ≈ are worked out from the molar mass of the structure shown.

What was measured:
[1] = tested on: E. coli ELZ4251; assay: Antibacterial activity, MIC, multi-drug resistant clinical isolate (Table 3); format: cell-based; conditions: Escherichia coli
From the text: (§1) The antibacterial activity from a microbroth dilution method may be presented as the minimum inhibitory concentration (MIC in μg/mL). The MIC value is the lowest concentration of drug which prevents macroscopically visible growth under test conditions.
(§2) Antibacterial activity of test compounds against E. coli ELZ4000 and E. coli ELZ4251 multi-drug resistant clinical isolates is shown in Table 3.

[2] = tested on: E. coli ELZ4000; assay: as above; format: cell-based; conditions: Escherichia coli, ELZ4000, read-out: MIC ELZ4000
From the text: as §1, §2

[3] = tested on: Escherichia coli (E. coli) BAS849; assay: Antibacterial activity, microbroth dilution MIC (Table 1); format: cell-based; conditions: microbroth dilution, super sensitive Gram-negative E. coli BAS849, read-out: MIC, BAS849
Procedure, shortened: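 In a microbroth dilution test, the minimum inhibitory concentration was defined as the lowest compound level preventing growth seen by eye, and was given in μg/mL.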

[4] = tested on: Staphylococcus aureus (S. aureus) 29213; assay: as above; format: cell-based; conditions: microbroth dilution, Gram-positive S. aureus 29213, read-out: MIC, 29213
Procedure, shortened: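 Using broth microdilution, MIC endpoints (μg/mL) mark where visible growth no longer appears; the panel spans sensitive and control Gram-negative strains plus a Gram-positive strain.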

[5] = tested on: Pseudomonas aeruginosa (P. aeruginosa) 27853; assay: Antibacterial activity, MIC (Table 5); format: cell-based; conditions: P. aeruginosa 27853, read-out: MIC, 27853
Procedure, shortened: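 Compounds are serially diluted in broth and inoculated with the organism. Growth is then inspected macroscopically, and the lowest concentration showing none is taken as the MIC (μg/mL).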

[6] = tested on: E. coli LZ3111; assay: Antibacterial activity, MIC, quinolone resistant strain (Table 2); format: cell-based; conditions: Escherichia coli, LZ3111, read-out: MIC LZ3111
Procedure, shortened: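 Strain carries mutations conferring high-level quinolone resistance; tested by microbroth dilution, MIC recorded in μg/mL as lowest concentration preventing visible growth.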

[7] = tested on: E. coli 25922; assay: Antibacterial activity, microbroth dilution MIC (Table 1); format: cell-based, Escherichia coli; conditions: Escherichia coli; microbroth dilution; control Gram-negative E. coli 25922 strain; read-out: MIC, 25922
Procedure, shortened: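 Values are MICs (μg/mL): the smallest drug amount at which macroscopically visible bacterial growth is absent under assay conditions, from a microdilution method in broth.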

Work on `CCc1c(-c2ccc3c(c2)cc(CN2CC4CC2CN4)n3C)[nH]c(=O)c(C(=O)O)c1O` (stereo not drawn) [Cpd 182, 6-(2-(2,5-diazabicyclo[2.2.1]heptan-2-ylmethyl)-1-methyl-1H-indol-5-yl)-5-ethyl-4-hydroxy-2-oxo-1,2-dihydropyridine-3-carboxylic acid] yielded an MIC [1] of 12.5 to 150 µg/mL (≈ 29.6 to 355 µM), an MIC [2] of 12.5 to 150 µg/mL (≈ 29.6 to 355 µM) and an MIC [3] of 1 to 3.5 µg/mL (≈ 2.37 to 8.28 µM). For the same molecule, the MIC [4] was 12.5 to 150 µg/mL (≈ 29.6 to 355 µM), the MIC [5] was 12.5 to 150 µg/mL (≈ 29.6 to 355 µM) and the MIC [6] was 3.5 to 12.5 µg/mL (≈ 8.28 to 29.6 µM). It also gave an MIC [7] of 12.5 to 150 µg/mL (≈ 29.6 to 355 µM).
`CCc1c(-c2ccc3c(c2)cc(CNC2CCCCC2)n3C)[nH]c(=O)c(C(=O)O)c1O.Cl` [Cpd 241, 6-(2-((cyclohexylamino)methyl)-1-methyl-1H-indol-5-yl)-5-ethyl-4-hydroxy-2-oxo-1,2-dihydropyridine-3-carboxylic acid hydrochloride] was tested, and the MIC [1] was 3.5 to 12.5 µg/mL, the MIC [2] was 12.5 to 150 µg/mL and the MIC [3] was < 1 µg/mL. It also gave an MIC [4] of 3.5 to 12.5 µg/mL, an MIC [5] of 12.5 to 150 µg/mL and an MIC [6] of 3.5 to 12.5 µg/mL. For the same molecule, the MIC [7] was < 1 µg/mL.
For `CCc1c(-c2ccc3c(c2)cc(CN2C[C@H]4CC[C@@H](N(C)C)[C@H]4C2)n3C)[nH]c(=O)c(C(=O)O)c1O` [Cpd 278, 6-(2-(((3aR,4R,6aS)-4-(dimethylamino)hexahydrocyclopenta[c]pyrrol-2(1H)-yl)methyl)-1-methyl-1H-indol-5-yl)-5-ethyl-4-hydroxy-2-oxo-1,2-dihydropyridine-3-carboxylic acid], the MIC [1] was 12.5 to 150 µg/mL (≈ 26.1 to 313 µM), the MIC [2] was 12.5 to 150 µg/mL (≈ 26.1 to 313 µM) and the MIC [3] was < 1 µg/mL. It also gave an MIC [4] of 3.5 to 12.5 µg/mL (≈ 7.31 to 26.1 µM), an MIC [5] of 12.5 to 150 µg/mL (≈ 26.1 to 313 µM) and an MIC [6] of 3.5 to 12.5 µg/mL (≈ 7.31 to 26.1 µM). The MIC [7] was 1 to 3.5 µg/mL (≈ 2.09 to 7.31 µM).
With `CCc1c(-c2ccc3c(c2)cc(CN2CCCCC2)n3C)[nH]c(=O)c(C(=O)O)c1N` [Cpd 331, 4-amino-5-ethyl-6-(1-methyl-2-(piperidin-1-ylmethyl)-1H-indol-5-yl)-2-oxo-1,2-dihydropyridine-3-carboxylic acid] the MIC [1] was 12.5 to 150 µg/mL (≈ 30.6 to 367 µM), the MIC [2] was 12.5 to 150 µg/mL (≈ 30.6 to 367 µM) and the MIC [3] was < 1 µg/mL. It also gave an MIC [4] of 12.5 to 150 µg/mL (≈ 30.6 to 367 µM), an MIC [5] of 12.5 to 150 µg/mL (≈ 30.6 to 367 µM) and an MIC [6] of 12.5 to 150 µg/mL (≈ 30.6 to 367 µM). The MIC [7] was 3.5 to 12.5 µg/mL (≈ 8.57 to 30.6 µM).
In the case of `CCc1c(-c2ccc3c(c2)cc(CN2C[C@H]4C[C@@H](N(C)Cc5ccccc5)C[C@H]4C2)n3C)[nH]c(=O)c(C(=O)O)c1O` [Cpd 288, 6-(2-(((3aR,5r,6aS)-5-(benzyl(methyl)amino)hexahydrocyclopenta[c]pyrrol-2(1H)-yl)methyl)-1-methyl-1H-indol-5-yl)-5-ethyl-4-hydroxy-2-oxo-1,2-dihydropyridine-3-carboxylic acid], the MIC [1] is reported as 12.5 to 150 µg/mL (≈ 22.5 to 270 µM), the MIC [2] is reported as 12.5 to 150 µg/mL (≈ 22.5 to 270 µM) and the MIC [3] is reported as < 1 µg/mL. The MIC [4] was 3.5 to 12.5 µg/mL (≈ 6.31 to 22.5 µM), the MIC [5] was 12.5 to 150 µg/mL (≈ 22.5 to 270 µM) and the MIC [6] was 12.5 to 150 µg/mL (≈ 22.5 to 270 µM). The MIC [7] was 1 to 3.5 µg/mL (≈ 1.8 to 6.31 µM).
In the case of `CCc1c(-c2ccc3c(c2)cc(CNCc2ccccn2)n3C)[nH]c(=O)c(C(=O)O)c1O.Cl` [Cpd 219, 5-ethyl-4-hydroxy-6-(1-methyl-2-((pyridin-2-ylmethylamino)methyl)-1H-indol-5-yl)-2-oxo-1,2-dihydropyridine-3-carboxylic acid hydrochloride], the MIC [1] is reported as 12.5 to 150 µg/mL, the MIC [2] is reported as 12.5 to 150 µg/mL and the MIC [3] is reported as < 1 µg/mL. For the same molecule, the MIC [4] was 1 to 3.5 µg/mL, the MIC [5] was 12.5 to 150 µg/mL and the MIC [6] was 3.5 to 12.5 µg/mL. It also gave an MIC [7] of 1 to 3.5 µg/mL.
In the case of `CCc1c(-c2ccc3ncccc3c2)[nH]c(=O)c(C(=O)O)c1O` [Cpd 20, 5-ethyl-4-hydroxy-2-oxo-6-(quinolin-6-yl)-1,2-dihydropyridine-3-carboxylic acid], the MIC [1] is reported as 3.5 to 12.5 µg/mL (≈ 11.3 to 40.3 µM), the MIC [2] is reported as 12.5 to 150 µg/mL (≈ 40.3 to 483 µM) and the MIC [3] is reported as 1 to 3.5 µg/mL (≈ 3.22 to 11.3 µM). For the same molecule, the MIC [4] was 12.5 to 150 µg/mL (≈ 40.3 to 483 µM), the MIC [5] was 12.5 to 150 µg/mL (≈ 40.3 to 483 µM) and the MIC [6] was 3.5 to 12.5 µg/mL (≈ 11.3 to 40.3 µM). It also gave an MIC [7] of 12.5 to 150 µg/mL (≈ 40.3 to 483 µM).
For `CCc1c(-c2ccc3c(c2)cc(CNCC2CCOCC2)n3C)[nH]c(=O)c(C(=O)O)c1O.Cl` [Cpd 227, 5-ethyl-4-hydroxy-6-(1-methyl-2-(((tetrahydro-2H-pyran-4-yl)methylamino)methyl)-1H-indol-5-yl)-2-oxo-1,2-dihydropyridine-3-carboxylic acid hydrochloride], the MIC [1] was 12.5 to 150 µg/mL, the MIC [2] was 12.5 to 150 µg/mL and the MIC [3] was < 1 µg/mL. For the same molecule, the MIC [4] was 3.5 to 12.5 µg/mL, the MIC [5] was 12.5 to 150 µg/mL and the MIC [6] was 12.5 to 150 µg/mL. It also gave an MIC [7] of 1 to 3.5 µg/mL.
Work on `CCc1c(-c2ccc3c(c2)cc(CN(CC2CC2)C2CCNCC2)n3C)[nH]c(=O)c(C(=O)O)c1O` [Cpd 264, 6-(2-(((cyclopropylmethyl)(piperidin-4-yl)amino)methyl)-1-methyl-1H-indol-5-yl)-5-ethyl-4-hydroxy-2-oxo-1,2-dihydropyridine-3-carboxylic acid] yielded an MIC [1] of 3.5 to 12.5 µg/mL (≈ 7.31 to 26.1 µM), an MIC [2] of 12.5 to 150 µg/mL (≈ 26.1 to 313 µM) and an MIC [3] of 1 to 3.5 µg/mL (≈ 2.09 to 7.31 µM). The MIC [4] was 3.5 to 12.5 µg/mL (≈ 7.31 to 26.1 µM), the MIC [5] was 12.5 to 150 µg/mL (≈ 26.1 to 313 µM) and the MIC [6] was 1 to 3.5 µg/mL (≈ 2.09 to 7.31 µM). The MIC [7] was 3.5 to 12.5 µg/mL (≈ 7.31 to 26.1 µM).
